In patent US8754115B2, “Fungicidal pyrazoles” (E I du Pont de Nemours and Company, priority 2010, dated 2014):
Marks after values point to notes of the source that are not given here.

Assays:
Type in all cases: in vivo
[1] = tested on: Botrytis cinerea; test: Test A: preventive spray on tomato seedlings, visual disease rating (tomato Botrytis)
In short: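 Preventive test: Botrytis cinerea spores applied one day after run-off spraying at 200 ppm (≈800 g/ha), or 40 ppm where asterisked. Incubation 48 h at 20 °C in saturated air, then 3 days at 24 °C; disease scored visually from 0 (no control) to 100 (complete control) versus untreated.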

[2] = tested on: Alternaria solani; test: Test B: preventive spray on tomato seedlings, visual disease rating (tomato early blight)
Excerpt: (§1) General protocol for preparing test suspensions for Tests A-F: the test compounds were first dissolved in acetone in an amount equal to 3% of the final volume and then suspended at the desired concentration (in ppm) in acetone and purified water (50/50 mix by volume) containing 250 ppm of the surfactant Trem® 014 (polyhydric alcohol esters). The resulting test suspensions were then used in Tests A-F. Spraying a 200 ppm test suspension to the point of run-off on the test plants was the equivalent of a rate of 800 g/ha. Unless otherwise indicated, the rating values indicate a 200 ppm test suspension was used. (An asterisk “*” next to the rating value indicates a 40 ppm test suspension was used.)
(§2) The test suspension was sprayed to the point of run-off on tomato seedlings. The following day the seedlings were inoculated with a spore suspension of Alternaria solani (the causal agent of tomato early blight) and incubated in a saturated atmosphere at 27° C. for 48 h, and then moved to a growth chamber at 20° C. for 5 days, after which time visual disease ratings were made.
(§3) Results for Tests A-F are given in Table A. In the Table, a rating of 100 indicates 100% disease control and a rating of 0 indicates no disease control (relative to the controls). A dash (-) indicates no test results. An asterisk “*” next to the rating value indicates a 40 ppm test suspension was used.

[3] = tested on: Septoria nodorum; test: Test C: preventive spray on wheat seedlings, visual disease rating (Septoria glume blotch)
Excerpt: as §1
as §2, with “wheat” for “tomato”, “Septoria nodorum” for “Alternaria solani”, “Septoria glume blotch)” for “tomato early blight)”, “24°” for “27°”, “6” for “5”
as §3

[4] = tested on: Septoria tritici; test: Test D: preventive spray on wheat seedlings, visual disease rating (wheat leaf blotch)
In short: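 Protection was scored visually on a 0–100% disease-control scale versus controls, 19 days after plants were moved to 20 °C following 48 h of 24 °C saturated humidity. Spore inoculation with S. tritici took place one day after a preventive run-off spray, usually at 200 ppm (800 g/ha) and at 40 ppm where asterisked.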

[5] = tested on: Puccinia recondite f. sp. tritici; test: Test E1: curative spray on wheat seedlings after inoculation, visual disease rating (wheat leaf rust)
Excerpt: as §1
Wheat seedlings were inoculated with a spore suspension of Puccinia recondite f. sp. tritici (the causal agent of wheat leaf rust) and incubated in a saturated atmosphere at 20° C. for 24 h, and then moved to a growth chamber at 20° C. for 2 days. After 2 days, the test suspension was sprayed to the point of run-off on the wheat seedlings, and then the seedlings were moved back to the growth chamber at 20° C. for 6 days. Upon removal, visual disease ratings were made.
as §3

[6] = tested on: Puccinia recondite f. sp. tritici; test: Test E2: preventive spray on wheat seedlings, visual disease rating (wheat leaf rust)
In short: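 Wheat seedlings were inoculated with leaf rust spores one day after a run-off spray of compound at 200 ppm (asterisk: 40 ppm) in 50/50 acetone/water with 250 ppm Trem 014. Incubation: 24 h saturated humidity, 20 °C; then 7 days growth chamber, 20 °C. Disease control scored visually, 0–100% relative to controls.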

[7] = tested on: Blumeria graminis f. sp. tritici; test: Test F: preventive spray on wheat seedlings, visual disease rating (wheat powdery mildew)
In short: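 Visual ratings (0–100% control relative to controls) taken 8 days after spore-dust inoculation at 20° C. Inoculation followed one day after a protective run-off spray of 200 ppm suspension, equal to 800 g/ha, or 40 ppm where flagged, made in acetone/water with 250 ppm surfactant.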

[8] = no asterisk: standard test suspension, not 40 ppm, 100 = 100% disease control, 0 = none
[9] = no asterisk: standard test suspension, not 40 ppm
[10] = asterisk: 40 ppm test suspension

Row | Compound | Test A rating (% disease control) [1, 8] [%] | Test B rating (% disease control) [2, 9] [%] | Test C rating (% disease control) [3, 9] [%] | Test D rating (% disease control) [4, 9] [%] | Test E1 rating (% disease control) [5, 9] [%] | Test E2 rating (% disease control) [6, 9] [%] | Test F rating (% disease control) [7, 9] [%] | other results
1 | 3-bromo-5-(2-chloro-4-fluorophenyl)-α-(2,4-difluorophenyl)-1-methyl-1H-pyrazole-4-methanol [Compound 30] | 100 | 0 | 0 | 100 | 100 | 100 | 99 | –
2 | 4-(2-chloro-4-fluorophenoxy)-5-(2,4-difluorophenyl)-1,3-dimethyl-1H-pyrazole [Compound 5] | 100 | 100 | 100 | 100 | 99 | 100 | 100 | –
3 | 4-[(2-chloro-4-fluorophenyl)hydroxymethyl]-5-(2,6-difluorophenyl)-1-methyl-1H-pyrazole-3-carbonitrile [Compound 53] | 100 | 0 | 0 | 95 | 91 | 97 | 96 | –
4 | 4-[(4-chlorophenyl)thio]-5-(2,6-difluorophenyl)-1,3-dimethyl-1H-pyrazole [Compound 56] | 100 | 59 | 0 | 100 | 0 | 99 | 100 | –
5 | 4-[[5-(2-chloro-4-fluorophenyl)-1,3-dimethyl-1H-pyrazol-4-yl]amino]-3,5-difluorobenzonitrile [Compound 40] | 100 | 0 | 0 | 0 | 38 | 68 | 91 | –
6 | 5-(2,6-difluorophenyl)-α-(4-fluoro-2-methylphenyl)-3-methoxy-1-methyl-1H-pyrazole-4-methanol [Compound 157] | 100 | 93 | 0 | 100 | 65 | 89 | 98 | –
7 | Cc1nn(C)c(-c2ccccc2Br)c1C(O)c1ccc(F)cc1Cl (single isomer, unassigned) [compound 79] | 98 | 0 | 0 | 100 | 53 | 100 | 99 | –
8 | Cc1nn(C)c(-c2ccccc2Br)c1C(O)c1ccc(F)cc1Cl (single isomer, unassigned) [compound 80] | 99 | 97 | 69 | 100 | 99 | 99 | 99 | –
9 | Cc1nn(C)c(-c2c(F)cccc2F)c1C(O)c1ccc(F)cc1Cl (single isomer, unassigned) [compound 86] | 99 | – | – | 100 | – | 100 | 100 | Test B rating (% disease control) [2, 10]: 100* %; Test C rating (% disease control) [3, 10]: 99* %; Test E1 rating (% disease control) [5, 10]: 99* %
10 | Cc1nn(C)c(-c2c(F)cccc2F)c1C(O)c1ccc(F)cc1Cl (single isomer, unassigned) [compound 87] | 100 | – | 100 | – | – | 99 | 99 | Test B rating (% disease control) [2, 10]: 0* %; Test D rating (% disease control) [4, 10]: 99* %; Test E1 rating (% disease control) [5, 10]: 0* %
11 | Cc1nn(C)c(-c2c(F)cccc2Cl)c1C(C)(O)c1ccc(F)cc1F (centres unmarked) [Compound 29] | 100 | 64 | 0 | – | 0 | 100 | 96 | –
12 | Cc1nn(C)c(-c2ccc(F)cc2Cl)c1Nc1ccc(Cl)cc1F [Compound 45] | 100 | 0 | 0 | 100 | 77 | 97 | 99 | Test A rating (% disease control) [1, 10]: 98* %; Test B rating (% disease control) [2, 10]: 33* %; Test C rating (% disease control) [3, 10]: 0* %; Test D rating (% disease control) [4, 10]: 100* %; Test E1 rating (% disease control) [5, 10]: 0* %; Test E2 rating (% disease control) [6, 10]: 95* %; Test F rating (% disease control) [7, 10]: 100* %
13 | Cn1nc(C#N)c(C(=O)c2ccc(F)cc2Cl)c1-c1c(F)cccc1F [Compound 52, 4-(2-chloro-4-fluorobenzoyl)-5-(2,6-difluorophenyl)-1-methyl-1H-pyrazole-3-carbonitrile] | 100 | 100 | 99 | 100 | 98 | 100 | 100 | –
14 | Cn1nc(C#N)c(C(O)c2ccc(F)cc2Cl)c1-c1c(F)cccc1F (centres unmarked) [Compound 53, 4-[(2-chloro-4-fluorophenyl)hydroxymethyl]-5-(2,6-difluorophenyl)-1-methyl-1H-pyrazole-3-carbonitrile] | – | – | – | – | – | – | – | pest or weed control at 40 ppm ([1]; Botrytis cinerea, 120 h, asterisk: 40 ppm test suspension): 93%; pest or weed control at 40 ppm ([2]; Alternaria solani, 168 h, asterisk: 40 ppm test suspension): 99%; pest or weed control at 40 ppm ([3]; Parastagonospora nodorum, 192 h, asterisk: 40 ppm test suspension): 0%; pest or weed control at 40 ppm ([4]; Zymoseptoria tritici, 504 h, asterisk: 40 ppm test suspension): 100%; pest or weed control at 40 ppm ([5]; 144 h, asterisk: 40 ppm test suspension): 0%; pest or weed control at 40 ppm ([6]; 192 h, asterisk: 40 ppm test suspension): 93%; pest or weed control at 40 ppm ([7]; Blumeria graminis, 192 h, asterisk: 40 ppm test suspension): 43%
15 | Cc1nn(C)c(-c2ccc(C#N)cc2F)c1Oc1ccc(F)cc1F [compound 26] | 100 | 0 | 0 | – | 0 | 79 | 64 | –
16 | Cc1nn(C)c(-c2ccccc2I)c1C(O)c1ccc(F)cc1Br (centres unmarked) [compound 88] | – | 0 | 0 | 99 | 0 | 68 | 89 | –
17 | Cc1nn(C)c(-c2ccc(Cl)cc2Cl)c1C(=O)c1ccc(F)cc1F [compound 89] | – | 0 | 0 | 93 | 0 | 89 | 100 | –
18 | Cc1nn(C)c(-c2c(F)cccc2Cl)c1C(O)c1ccc(Cl)cc1Cl (centres unmarked) [compound 90] | – | – | – | – | – | – | 100 | Test B rating (% disease control) [2, 10]: 100* %; Test C rating (% disease control) [3, 10]: 99* %; Test D rating (% disease control) [4, 10]: 100* %; Test E1 rating (% disease control) [5, 10]: 74* %; Test E2 rating (% disease control) [6, 10]: 100* %
